Test results: patent US9200001B2, “Triazolyl PDE10 inhibitors” (Merck Sharp & Dohme Corp., priority 2011, dated 2015)

Tests used:
human PDE10A2 = human PDE10A2 (Homo sapiens (Human), UniProt Q9Y233); assay: PDE10 fluorescence polarization (IMAP FP) inhibition assay; format: biochemical; conditions: FAM-labeled cAMP 50 nM, room temperature, read-out: PDE10a Ki
Method in brief: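 Cytoplasmic lysate of AD293 cells transiently expressing human PDE10A2, incubated 30 minutes at room temperature with 50 nM FAM-labeled cAMP in Tris pH 7.2 with MgCl2. Read by IMAP fluorescence polarization; 0% inhibition set by 1% DMSO, 100% by a reference PDE10 inhibitor.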

Chain of human PDE10A2 (Q9Y233 267-1055): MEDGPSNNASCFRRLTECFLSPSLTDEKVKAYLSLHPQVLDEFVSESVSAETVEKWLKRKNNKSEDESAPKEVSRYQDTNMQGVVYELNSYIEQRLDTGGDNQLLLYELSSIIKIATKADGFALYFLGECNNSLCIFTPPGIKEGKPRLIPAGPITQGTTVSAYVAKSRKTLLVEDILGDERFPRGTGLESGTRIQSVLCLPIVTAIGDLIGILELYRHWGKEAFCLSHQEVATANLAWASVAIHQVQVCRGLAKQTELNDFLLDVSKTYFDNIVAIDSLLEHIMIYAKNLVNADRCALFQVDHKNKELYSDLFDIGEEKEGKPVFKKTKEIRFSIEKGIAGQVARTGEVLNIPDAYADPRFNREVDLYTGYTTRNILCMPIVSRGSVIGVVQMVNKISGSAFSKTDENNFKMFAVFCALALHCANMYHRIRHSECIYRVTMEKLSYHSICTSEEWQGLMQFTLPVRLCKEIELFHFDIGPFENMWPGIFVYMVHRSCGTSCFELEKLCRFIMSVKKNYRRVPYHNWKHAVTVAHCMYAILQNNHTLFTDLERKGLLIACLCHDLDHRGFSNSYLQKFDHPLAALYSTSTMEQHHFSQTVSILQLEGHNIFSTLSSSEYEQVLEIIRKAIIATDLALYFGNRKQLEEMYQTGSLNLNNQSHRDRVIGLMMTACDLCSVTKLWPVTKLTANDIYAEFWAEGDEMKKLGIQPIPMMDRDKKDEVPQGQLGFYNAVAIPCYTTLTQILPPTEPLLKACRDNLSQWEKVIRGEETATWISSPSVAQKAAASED

melting point [°C]	Ki (human PDE10A2) [nM]	SMILES
226 to 228	–	Cc1nc(C)n(-c2cc([C@H]3C[C@@H]3c3nc4ccccc4n3C)nc(N3CCOCC3)n2)n1 (relative stereo) [Cpd 117, trans-2-{2-[6-(3,5-dimethyl-1H-1,2,4-triazol-1-yl)-2-morpholin-4-ylpyrimidin-4-yl]cyclopropyl}-1-methyl-1H-benzimidazole]
229 to 231	–	Cc1nc(C)n(-c2cc([C@@H]3C[C@H]3c3nc4ccccc4n3C)nc(C#N)n2)n1 (relative stereo) [Example 21, trans-4-(3,5-dimethyl-1H-1,2,4-triazol-1-yl)-6-(2-(1-methyl-1H-benzo[d]imidazol-2-yl)cyclopropyl)pyrimidine-2-carbonitrile]
–	60.7	Cc1nc([C@@H]2C[C@H]2c2cc3n(n2)CCCC3)cc(-n2nc(C)nc2C)n1 [Cpd 107, 2-{(1R,2R)-2-[6-(3,5-dimethyl-1H-1,2,4-triazol-1-yl)-2-methylpyrimidin-4-yl]cyclopropyl}-4,5,6,7-tetrahydropyrazolo[1,5-a]pyridine]
–	0.88	Cc1nc(C)n(-c2cc([C@@H]3C[C@H]3c3nc4ccccc4n3C)nc(C(C)(C)O)n2)n1 [Cpd 131, 2-(4-(3,5-dimethyl-1H-1,2,4-triazol-1-yl)-6-((1R,2R)-2-(1-methyl-1H-benzo[d]imidazol-2-yl)cyclopropyl)pyrimidin-2-yl)propan-2-ol]
–	0.58	Cc1nc(C)n(-c2cc([C@@H]3C[C@H]3c3nc4ccccc4n3C)nc(N3CC[C@@H](F)C3)n2)n1 [Cpd 134, 2-((1R,2R)-2-(6-(3,5-dimethyl-1H-1,2,4-triazol-1-yl)-2-((R)-3-fluoropyrrolidin-1-yl)pyrimidin-4-yl)cyclopropyl)-1-methyl-1H-benzo[d]imidazole]
–	1.1	Cc1nc(C)n(-c2cc([C@@H]3C[C@H]3c3nc4ccccc4n3C)nc(N3CC(C)(O)C3)n2)n1 [Cpd 135, 1-(4-(3,5-dimethyl-1H-1,2,4-triazol-1-yl)-6-((1R,2R)-2-(1-methyl-1H-benzo[d]imidazol-2-yl)cyclopropyl)pyrimidin-2-yl)-3-methylazetidin-3-ol]
–	1.3	Cc1nc(C)n(-c2cc([C@@H]3C[C@H]3c3nc4ccccc4n3C)nc(OCC3CCO3)n2)n1 (stereo partly drawn) [Cpd 138, 2-((1R,2R)-2-(6-(3,5-dimethyl-1H-1,2,4-triazol-1-yl)-2-(oxetan-2-ylmethoxy)pyrimidin-4-yl)cyclopropyl)-1-methyl-1H-benzo[d]imidazole]

Further lines, the compound ahead of its results:

SMILES	melting point [°C]	Ki (human PDE10A2) [nM]
Cc1nc(C)n(-c2cc([C@H]3C[C@@H]3c3nc4ccccc4n3C)nc(OC(C)C)n2)n1 (relative stereo) [Cpd 113, trans-2-{2-[6-(3,5-dimethyl-1H-1,2,4-triazol-1-yl)-2-(1-methylethoxy)pyrimidin-4-yl]cyclopropyl}-1-methyl-1H-benzimidazole]	133 to 135	0.62
Cc1nc(C)n(-c2cc([C@H]3C[C@@H]3c3nc4ccccc4n3C)nc(N(C)C)n2)n1 (relative stereo) [Cpd 114, trans-4-(3,5-dimethyl-1H-1,2,4-triazol-1-yl)-N,N-dimethyl-6-[2-(1-methyl-1H-benzimidazol-2-yl)cyclopropyl]pyrimidin-2-amine]	164 to 165	1.2
Cc1nc(C)n(-c2cc([C@H]3C[C@@H]3c3nc4ccccc4n3C)nc(N3CCCC3)n2)n1 (relative stereo) [Cpd 116, trans-2-{2-[6-(3,5-dimethyl-1H-1,2,4-triazol-1-yl)-2-pyrrolidin-1-ylpyrimidin-4-yl]cyclopropyl}-1-methyl-1H-benzimidazole]	180 to 185	1.2
Cc1nc(C)n(-c2cc([C@H]3C[C@@H]3c3nc4ccccc4n3C)nc(C(N)=O)n2)n1 (relative stereo) [Cpd 130, trans-4-(3,5-dimethyl-1H-1,2,4-triazol-1-yl)-6-[2-(1-methyl-1H-benzimidazol-2-yl)cyclopropyl]pyrimidine-2-carboxamide]	119 to 121	1.6
CNc1nc([C@H]2C[C@@H]2c2nc3ccccc3n2C)cc(-n2nc(C)nc2C)n1 (relative stereo) [Example 3, trans-4-(3,5-dimethyl-1H-1,2,4-triazol-1-yl)-N-methyl-6-(2-(1-methyl-1H-benzo[d]imidazol-2-yl)cyclopropyl)pyrimidin-2-amine]	212 to 214	–
CCOc1nc([C@@H]2C[C@H]2c2nc3ccccc3n2C)cc(-n2nc(C)nc2C)n1 (relative stereo) [Example 14, trans-2-(2-(6-(3,5-dimethyl-1H-1,2,4-triazol-1-yl)-2-ethoxypyrimidin-4-yl)cyclopropyl)-1-methyl-1H-benzo[d]imidazole]	82 to 83	–
CCc1nc(CC)n(-c2cc([C@@H]3C[C@H]3c3nc4ccccc4n3C)nc(C)n2)n1 [Cpd 106, 2-{(1R,2R)-2-[6-(3,5-diethyl-1H-1,2,4-triazol-1-yl)-2-methylpyrimidin-4-yl]cyclopropyl}-1-methyl-1H-benzimidazole]	–	2.8
Cc1nc(C)n(-c2cc([C@@H]3C[C@H]3c3nc4ccccc4n3C)nc(N3CC(F)(F)C3)n2)n1 [Cpd 132, 2-((1R,2R)-2-(2-(3,3-difluoroazetidin-1-yl)-6-(3,5-dimethyl-1H-1,2,4-triazol-1-yl)pyrimidin-4-yl)cyclopropyl)-1-methyl-1H-benzo[d]imidazole]	–	0.75
Cc1nc(C)n(-c2cc([C@@H]3C[C@H]3c3nc4ccccc4n3C)nc(N3CCC[C@H]3C)n2)n1 [Cpd 133, 2-((1R,2R)-2-(6-(3,5-dimethyl-1H-1,2,4-triazol-1-yl)-2-((R)-2-methylpyrrolidin-1-yl)pyrimidin-4-yl)cyclopropyl)-1-methyl-1H-benzo[d]imidazole]	–	0.37
Cc1nc(C)n(-c2cc([C@@H]3C[C@H]3c3nc4ccccc4n3C)nc(OC3CCC3)n2)n1 [Cpd 136, 2-((1R,2R)-2-(2-cyclobutoxy-6-(3,5-dimethyl-1H-1,2,4-triazol-1-yl)pyrimidin-4-yl)cyclopropyl)-1-methyl-1H-benzo[d]imidazole]	–	0.42
Cc1nc(C)n(-c2cc([C@@H]3C[C@H]3c3nc4ccccc4n3C)nc(OCC3(C)CC3)n2)n1 [Cpd 137, 2-((1R,2R)-2-(6-(3,5-dimethyl-1H-1,2,4-triazol-1-yl)-2-((1-methylcyclopropyl)methoxy)pyrimidin-4-yl)cyclopropyl)-1-methyl-1H-benzo[d]imidazole]	–	0.84
